The LD50 is the dose expected to kill half of the subjects tested.

One data set can be described thus: Solubility (qualitative). The class given is physicochemical. The conditions noted are these: for solubility in other solvents: organic solvents, sodium hydroxide.
A further data set is described as follows: in vivo. The conditions noted are these: mouse, mice, observed one week. As to the method: 1. determination of the acute toxicity:
The acute toxicity has been determined on batches of ten mice weighing from 18 to 22 gm. The products were administered in suspension in gum arabic solution in water, at increasing doses, either by oral route or by intraperitoneal route.
The animals are kept under observation for one week. The average lethal dose (LD50) is determined graphically by the method of Dragstedt and Lang.
The acute toxicity was determined on batches of ten mice weighing from 18 to 22 gm. Ethyl 2-n-propyl-thiazole-4-carboxylate was administered in suspension in gum arabic solution in water, at increasing doses by the intraperitoneal route. The animals were kept under observation for one week. The average lethal dose (LD50) was determined graphically by the method of Dragstedt and Lang.

The next data set concerns triglycerides. Put plainly: Hypolipemiant activity (serum triglycerides) in the rat, technique of Jacobs et al. The class given is in vivo, male rats of the Wistar strain. The conditions noted are these: 4 hours after ingestion; for Percentage of Reduction by Comparison With Controls (triglycerides): oral (oesophagial probe), 20 mg/kg. As to the method: 2. Determination of hypolipemiant activity:
The hypolipemiant activity has been determined on the rat according to the technique of Jacobs et al, Proc. Soc. Exp. Biol. Med., [1965], 119 (4) pp. 1117-1120.
Male rats of the Wistar strain weighing from 160 to 180 gm are not fed for 24 hours. The products employed in a 5% suspension in gum arabic solution in water, are administered through an oesophagial probe at doses of 20, 40 and 80 mg/kg. Four hours after ingestion of the product, some blood is withdrawn on which a determination of the triglycerides is carried out.
The principle of the determination is as follows:
The serum lipids are extracted with petroleum ether in the presence of ethanol. The lipidic solution is treated several times with 87% ethanol. A solution is thus obtained, the upper part of which contains the glycerides and the lower part, the phospholipids.
The weight of the glycerides is determined by determination of glycerol by periodic acid oxidation and determination of the formaldehyde with chromotropic acid.
A. determination of hypolipemiant activity:
The hypolipemiant activity was determined on the rat using the technique of Jacobs et al (Proc. Soc. Exp. Biol. Med., [1965], 119 [4], pp. 1117-1120). Male rats of the Wistar strain weighing from 160 to 180 gm were not fed for 24 hours. The product employed in a 5% suspension in gum arabic solution in water, was administered orally through an oesophagial probe at doses of 20 and 80 mg/kg. Four hours after ingestion of the product, some blood was withdrawn and a determination of the triglycerides therein was made.
The serum lipids are extracted with petroleum ether in the presence of ethanol and the lipidic solution was treated several times with 87% ethanol to obtain a solution, the upper part of which contained the glycerides and the lower part the phospholipids. The weight of the glycerides by determination of glycerol by periodic acid oxidation and determination of the formaldehyde with chromotropic acid is estimated.

Another data set deals with reddening of the ear. The data set can be described thus: Peripheral vasodilatory effect (reddening of the ear) in guinea pigs. The class given is in vivo, guinea pigs with non-pigmented ears. Particulars: for Duration (of reddening) / Intensity (of reddening) / Period of Induction: oral. On the set-up: key to Intensity (of reddening): intensity, which is recorded subjectively from 0 to +++; intensity, which is recorded subjectively from 0 to +++; intensity, which is recorded subjectively from 0 to +++; intensity, which is recorded subjectively from 0 to +++. Here is the method:
Peripheral vasodilatory effect: The peripheral vasodilatory effect has been investigated on the guinea pigs with non-pigmented ears by the appearance of the reddening of the ear. The animals, after being starved, are administered the products by oral route, at different dosages. The time of appearance of a reddening of the ears, the duration of this reddening and its intensity, which is recorded subjectively from 0 to +++ is determined. B. peripheral vasodilatory effect: The peripheral vasodilatory effect was investigated on guinea pigs with non-pigmented ears by the appearance of the reddening of the ear. The animals were starved and the product was administered intraperitoneally at a dose of 100 mg/kg. The time of appearance of a reddening of the ears, the duration of this reddening and its intensity being recorded subjectively from 0 to +++ is determined.

A short description of data set [1]: Hypothermic activity in guinea pigs. The format is in vivo. The conditions noted are these: intraperitoneal, 100 mg/kg, 1, 2 and 3 hours after administration. As to the method:
The hypothermic activity was determined on guinea pigs by administering the test compound, ethyl 2-n-propyl-thiazole-4-carboxylate, intraperitoneally at a dose of 100 mg/kg. The body temperature of the guinea pigs was determined 1/2 hour before the administration of the test compound and then 1, 2 and 3 hours after the said administration.

[2] abbreviates: ip, intraperitoneal, read-out: average lethal dose (LD50), Intraperitoneal Route.
Where [3] appears, read: oral, read-out: average lethal dose (LD50), Oral Route.

Structures are written as SMILES. Like-named read-outs stand apart in the source and are kept apart here.

Consider `CCCc1ncc(C(=O)OCC2COC(C)(C)O2)s1` (stereo not drawn) [2,3-Isopropylidenedioxy-propyl 2-propyl-5-thiazolecarboxylate], for which, in “Solubility (qualitative)”, the “solubility in other solvents” value was “soluble in ether, benzene and ethanol”; the solubility in water entry is given as “insoluble in water”.

`CCc1ncc(C(=O)O)s1` [2-ethyl-5-thiazolecarboxylic acid, 2-Ethyl-5-thiazolecarboxylic acid]: in “in vivo” (setting [2]), the LD50 at 168 h turned out to be 525 mg/kg. The median lethal dose (LD50) at 168 h in “in vivo” (setting [3]) is greater than 2000 mg/kg. Besides, the “Percentage of Reduction by Comparison With Controls (triglycerides)” value (“Percentage of Reduction” below) in the data set with triglycerides is recorded as 50%. Also, in the data set on reddening of the ear (50 mg/kg), the “Duration (of reddening)” value was 50 min, the “Intensity (of reddening)” value is reported as “+++” and the “Period of Induction” value was in the range of 6 to 8 min. Further, in the data set with reddening of the ear (100 mg/kg), the “Duration (of reddening)” value was found to be 60 min, the “Intensity (of reddening)” value is “+++” and the “Period of Induction” value lay within 6 to 7 min. For the same compound, in “Solubility (qualitative)”, the “solubility in other solvents” value is “soluble in ethanol and sodium hydroxide”; the solubility in water result is reported as “insoluble in water”.

On to `Cc1ncc(C(=O)O)s1` [2-methyl-5-thiazolecarboxylic acid], for which the “Percentage of Reduction” value with triglycerides is 40%. Besides, in the data set on reddening of the ear (10 mg/kg), the “Duration (of reddening)” value came out at 30 min, the “Intensity (of reddening)” value is reported as “+++” and the “Period of Induction” value came to 5 min. Moreover, in the data set with reddening of the ear (20 mg/kg), the “Duration (of reddening)” value was 32 min, the “Intensity (of reddening)” value was “+++” and the “Period of Induction” value amounted to 3 min. Also, in the data set on reddening of the ear (50 mg/kg), the “Duration (of reddening)” value turned out to be 35 min, the “Intensity (of reddening)” value is on record as “+++” and the “Period of Induction” value was 3 min.

In the case of `CCCCc1ncc(C(=O)O)s1` [2-n-butyl-5-thiazolecarboxylic acid], in the data set “Solubility (qualitative)”, the “solubility in other solvents” value is “soluble in alcohol, chloroform and benzene”; the solubility in water entry is listed as “insoluble in water”.

For the compound `CCCCCCc1ncc(C(=O)O)s1` [2-n-hexyl-5-thiazolecarboxylic acid], in “Solubility (qualitative)”, the “solubility in other solvents” value was “soluble in sodium hydroxide and alcohol”; the solubility in water result was “insoluble in water”.

With `CCCCCc1ncc(C(=O)O)s1` [2-n-pentyl-5-thiazolecarboxylic acid], in the data set “Solubility (qualitative)”, the “solubility in other solvents” value was “soluble in sodium hydroxide and alcohol, slightly soluble in ether”; the solubility in water result is recorded as “insoluble in water”.

For `CCCCCCCCCCCc1ncc(C(=O)O)s1` [2-n-undecyl-5-thiazolecarboxylic acid], in the data set “Solubility (qualitative)”, the “solubility in other solvents” value was “soluble in alcohol and acetone”; the solubility in water entry is “insoluble in water”.

`CCCc1ncc(C(=O)O)s1` [2-propyl-5-thiazolecarboxylic acid]: the median lethal dose (LD50) at 168 h in the data set “in vivo” (setting [2]) stood at 1680 mg/kg. Moreover, in “in vivo” (setting [3]), the LD50 at 168 h is greater than 2000 mg/kg. Besides, the “Percentage of Reduction” value in the data set on triglycerides was greater than 50%. Moreover, in the data set on reddening of the ear (50 mg/kg), the “Duration (of reddening)” value was found to be 30 min, the “Intensity (of reddening)” value is “+” and the “Period of Induction” value turned out to be 13 min. Also, in the data set with reddening of the ear (100 mg/kg), the “Duration (of reddening)” value came out at 32 min, the “Intensity (of reddening)” value is given as “++” and the “Period of Induction” value stood at 10 min. Further, in “Solubility (qualitative)”, the “solubility in other solvents” value was “soluble in sodium hydroxide and alcohol, slightly soluble in ether”; the solubility in water entry is given as “insoluble in water”.

For the compound `CCCc1ncc(C(=O)OCCc2ccccc2)s1` [Phenylethyl 2-propyl-5-thiazolecarboxylate], in “Solubility (qualitative)”, the “solubility in other solvents” value is “soluble in ether and acetone”; the solubility in water result is listed as “insoluble in water”.

As to `CCCc1ncc(C(=O)OCc2ccccc2)s1` [benzyl 2-propyl-5-thiazolecarboxylate, Benzyl 2-propyl-5-thiazolecarboxylate], in the data set “Solubility (qualitative)”, the “solubility in other solvents” value is “soluble in ether and ethanol”; the solubility in water entry was “insoluble in water”.

Turning to `CCCc1ncc(C(=O)OCCN(CC)CC)s1` [chlorohydrate of N,N-diethylaminoethyl 2-propyl-5-thiazolecarboxylate], in the data set “Solubility (qualitative)”, the “solubility in other solvents” value is “soluble in water, ethanol, propylene glycol, acetone, and chloroform, slightly soluble in ethyl acetate and benzene, and insoluble in ether”; the solubility in water result is on record as “soluble in water”.

Consider `CCCc1ncc(C(=O)O)s1` [diisopropylammonium 2-propyl-5-thiazolecarboxylate], for which, in the data set “Solubility (qualitative)”, the “solubility in other solvents” value was “soluble in water and in alcohol”; the solubility in water result was “soluble in water”.

As for `CCCc1nc(C(=O)OCC)cs1` [ethyl 2-n-propyl-thiazole-4-carboxylate, reference compound], the median lethal dose (LD50) at 168 h in “in vivo” (setting [2]) lay within 1000 to 1500 mg/kg. For the same compound, the “hypolipemiant activity (action on the triglycerides)” value with triglycerides (oral, 20 and 80 mg/kg, comparison test) was “no action on the triglycerides”. For the same compound, the peripheral vasodilatory effect entry in the data set with reddening of the ear (intraperitoneal, 100 mg/kg, comparison test) is “no vasodilatory activity”. For the same compound, in data set [1], the hypothermic activity entry was “no hypothermic activity”.

The values above are taken from patent US4045567A, “2-Alkyl-5-thiazole-carboxylic acid derivatives in hypolipemiant compositions” (Roussel Uclaf, priority 1969, dated 1977).
